Values joined by “and” are separate entries in the source; they are usually repeats but may differ in a detail not shown here. Equal entries are not always repeated.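 Results reflect a 48-hour exposure of cells in 96-well plates to compound at five concentrations. Abbreviation: GI50, concentration required for 50% inhibition of growth. TGI denotes the concentration required for complete inhibition of growth.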
How the values were obtained:
Assay in all cases: NCI-60 cell line screen, 48 h
OVCAR-3 ovarian = system: OVCAR-3 ovarian
HOP-62 NSCLC = system: HOP-62 NSCLC
HCT-15 colon = system: HCT-15 colon
SK-MEL-5 melanoma = system: SK-MEL-5 melanoma
MALME-3M melanoma = system: MALME-3M melanoma
A549 NSCLC = system: A549 NSCLC
SNB-75 CNS = system: SNB-75 CNS
RXF 393 renal = system: RXF 393 renal
HT29 colon = system: HT29 colon
NCI-H23 lung = system: NCI-H23 lung

Compound | TGI (OVCAR-3 ovarian) | TGI (HOP-62 NSCLC) | TGI (HCT-15 colon) | TGI (SK-MEL-5 melanoma) | TGI (MALME-3M melanoma) | TGI (A549 NSCLC) | TGI (SNB-75 CNS) | TGI (RXF 393 renal) | TGI (HT29 colon) | TGI (NCI-H23 lung) | GI50 (MALME-3M melanoma) | GI50 (OVCAR-3 ovarian) [µM] | GI50 (HOP-62 NSCLC) [µM] | GI50 (HCT-15 colon) [µM] | GI50 (SK-MEL-5 melanoma) [µM] | GI50 (A549 NSCLC) [µM] | GI50 (SNB-75 CNS) [µM] | GI50 (RXF 393 renal) [µM] | GI50 (HT29 colon) [µM] | GI50 (NCI-H23 lung) [µM]
CC(=O)NC1C(OCc2ccccc2)OC(CO)C(O)C1OC(C)C(=O)N[C@@H](C)C(=O)N[C@H](CCC(=O)NCCNCCNc1c2ccccc2nc2cccc([N+](=O)[O-])c12)C(N)=O (stereo partly specified) | 4.44 µM | 5.17 µM | 1.63 µM | 0.0635 µM | 0.221 µM | 1.71 µM | 0.883 µM | 0.0844 µM | 0.668 µM | 0.0902 µM |  |  |  |  |  |  |  |  |  | 
CC(C)(CO[C@H]1C[C@H]2CC[C@@]1(C)C2(C)C)[N+](=O)[O-] | 56.5 µM | 38.4 µM | 51.6 µM | 31.6 µM | 40.3 µM | > 100 µM | 45.1 µM | 26.1 µM | 30.6 µM | 65.6 µM |  |  |  |  |  |  |  |  |  | 
COC(=O)c1c2c(cc3c1CC1(Cc4cc5c(c(C=O)c4C1)CCC5)C3)CCC2 (stereo unspecified) | 99.2 µM | > 100 µM | > 100 µM | 37.2 µM | 61.7 µM | > 100 µM | > 100 µM | > 100 µM | 79.2 µM | > 100 µM |  |  |  |  |  |  |  |  |  | 
COC(=O)[C@]1(c2cc3ccccc3n2S(=O)(=O)c2ccccc2)CC2CN(C(=O)OCc3ccccc3)C1C1OC(C)(C)OC21 (stereo partly specified) | > 100 µM | > 100 µM | > 100 µM | > 100 µM | > 100 µM | > 100 µM | > 100 µM | > 100 µM | > 100 µM | > 100 µM |  |  |  |  |  |  |  |  |  | 
CC1=NN(C(=O)CC(=O)Nc2cccc(C)c2)C(=O)C1N=Nc1ccc(S(=O)(=O)CCOS(=O)(=O)O)cc1 (stereo unspecified) | 14.9 µM | 25.9 µM | 4.83 µM | 2.88 µM | 13.6 µM | 50.6 µM | 19.7 µM | 22 µM | 11.5 µM | 24.6 µM |  |  |  |  |  |  |  |  |  | 
Cn1/c(=N\N=C2\C=C3CCCCC3(C)CC2)sc2ccccc21 (stereo unspecified) | > 100 µM | > 100 µM | > 100 µM | > 100 µM | > 100 µM | > 100 µM | > 100 µM | > 100 µM | > 100 µM | > 100 µM |  |  |  |  |  |  |  |  |  | 
COC1CC(C)(NC(=O)C(F)(F)F)C2OC(c3ccccc3)OCC2O1 (stereo unspecified) | > 100 µM | > 100 µM | > 100 µM | > 100 µM | > 100 µM | > 100 µM | > 100 µM | > 100 µM | > 100 µM | > 100 µM |  |  |  |  |  |  |  |  |  | 
COC(=O)C1OC(O[C@H]2CC[C@]3(C)[C@H]4CC=C5[C@@H]6CC(C)(C)CC[C@]6(C(=O)OC6OCC(O)C(O)C6OC6OC(C)C(OC7OCC(O)C(O)C7O)C(O)C6O)[C@H](O)C[C@@]5(C)[C@]4(C)CC[C@H]3C2(C)C)C(O)C(O)C1O (stereo partly specified) | > 78.1 µM and 25 µM | 17.8 µM and 22.9 µM | 42.8 µM and 27.5 µM | 19.4 µM and 25.8 µM | 16.2 µM and 23.6 µM | 11.8 µM and 14.6 µM | 18.5 µM and 20.9 µM | 29 µM and 31.2 µM | 9.7 µM and 15.3 µM | 4.76 µM and 6.24 µM | 4.78 µM and 11.2 µM |  |  |  |  |  |  |  |  | 
COC(=N)C1(C#N)NC(c2ccsc2)C(C#N)(C#N)NC1c1ccsc1 (stereo unspecified) | > 100 µM | > 100 µM | > 100 µM | > 100 µM | > 100 µM | > 100 µM | > 100 µM | > 100 µM | > 100 µM | > 100 µM |  |  |  |  |  |  |  |  |  | 
CN1CCN(C(=O)c2cn(Cc3cncn3Cc3ccc4c(c3)OCO4)cc2-c2cccc3ccccc23)CC1 | > 91.3 µM | > 100 µM | > 100 µM | 37.4 µM | 26.6 µM | > 100 µM | 67.9 µM | > 100 µM | > 95.5 µM | > 89.7 µM |  |  |  |  |  |  |  |  |  | 
CC(=O)CC1(CBr)Nc2ccc([N+](=O)[O-])cc2NC1=O (stereo unspecified) | > 100 µM | > 100 µM | > 100 µM | > 100 µM | > 100 µM | > 100 µM | > 100 µM | > 100 µM | > 100 µM | > 100 µM |  |  |  |  |  |  |  |  |  | 
N#Cc1c(NC(=S)Nc2ccc(Cl)cc2)sc2c1CCN(N1CCc3c(sc(NC(=S)Nc4ccc(Cl)cc4)c3C#N)C1)C2 | > 100 µM | 55.2 µM | > 100 µM | 22.3 µM | > 100 µM | > 100 µM | > 100 µM | 78.3 µM | 26.5 µM | > 100 µM |  |  |  |  |  |  |  |  |  | 
CC(Nc1ccc(Cl)cc1)c1ccncc1 (stereo unspecified) | > 100 µM | > 100 µM | > 100 µM | > 100 µM | > 100 µM | > 100 µM | > 100 µM | > 100 µM | > 100 µM | > 100 µM |  |  |  |  |  |  |  |  |  | 
CC1OC(OC2C(O[C@H]3CC[C@@]4(C)C(=CC[C@H]5[C@@H]6C[C@@H]7O[C@]8(CC[C@@H](C)CO8)[C@@H](C)[C@@H]7[C@@]6(C)CC[C@@H]54)C3)OC(CO)C(O)C2OC2OC(CO)C(O)C(O)C2O)C(O)C(O)C1O (stereo partly specified) | 2.69 µM | 4.21 µM | 4.03 µM | 4.36 µM | 3.26 µM | 3.35 µM | 3.7 µM | 4.43 µM | > 100 µM | 3.44 µM |  |  |  |  |  |  |  |  |  | 
C[n+]1cccc2ccc3cccnc3c21 | > 100 µM | 75 µM | > 100 µM | 42 µM | 49.9 µM | > 100 µM | 65.1 µM | > 100 µM | > 100 µM | > 100 µM |  |  |  |  |  |  |  |  |  | 
C=C1c2nc3ccccc3n2C=C(c2ccc(C)cc2)N1c1ccc(OC)cc1 | > 100 µM | > 100 µM | > 100 µM | > 100 µM | > 100 µM | > 100 µM | > 100 µM | > 100 µM | > 91.2 µM | > 100 µM |  |  |  |  |  |  |  |  |  | 
CC(C)(C)C1CCC2c3c([nH]c4ccccc34)C3C(=O)N(c4ccc([N+](=O)[O-])cc4)C(=O)C3C2C1 (stereo unspecified) | 28.4 µM | 33.8 µM | > 100 µM | 25.6 µM | 43.7 µM | 62.1 µM | 38.4 µM | 23.6 µM | 19.2 µM | 33.7 µM |  |  |  |  |  |  |  |  |  | 
O=C(Nc1ccccc1)N1CCN(C(=O)Nc2ccccc2)C1=S | > 100 µM | 67.9 µM | > 100 µM | > 100 µM | > 100 µM | > 100 µM | 47.2 µM | 43.6 µM | > 100 µM | 55.4 µM |  |  |  |  |  |  |  |  |  | 
O=C1c2cc3c(cc2-c2c1c1cc(F)c(F)cc1c(=O)n2CCCn1ccnc1)OCO3 | 1.52 µM | 0.0477 µM | > 100 µM | 0.0852 µM | 1.21 µM | 1.32 µM | 0.11 µM | 0.169 µM | > 100 µM | 0.29 µM | 0.0856 µM | 0.116 | < 0.01 | 0.117 | 0.02 | 0.018 | < 0.01 | 0.036 | 0.0189 | 0.0204
O=C(O)C(Cc1ccccc1)NCc1c(O)ccc2c(-c3ccccc3)cc(=O)oc12 (stereo unspecified) | > 100 µM | > 100 µM | > 100 µM | > 100 µM | > 100 µM | > 100 µM | > 100 µM | > 100 µM | > 100 µM | > 100 µM |  |  |  |  |  |  |  |  |  | 

— PubChem BioAssay (NCI)
